Converted amounts (≈) assume the structure as drawn.
Tests used:
Type in all cases: functional
[1] = test system: Aspergillus niger; assay: Antifungal activity against Aspergillus niger MTCC 2546 at 1500 ug/ml after 18 hr by cup-plate method; conditions: MTCC 2546, 18 h, read-out: DIZ
[2] = test system: Bacillus subtilis; assay: Antibacterial activity against Bacillus subtilis MTCC 441 at 1000 ug/ml after 18 hr by cup plate method; conditions: MTCC 441, 18 h, read-out: DIZ
[3] = test system: Pseudomonas fluorescens; assay: Antibacterial activity against Pseudomonas fluorescens MTCC 2421 at 1500 ug/ml after 18 hr by cup-plate method; conditions: MTCC 2421, 18 h, read-out: DIZ
[4] = test system: Pseudomonas fluorescens; assay: Antibacterial activity against Pseudomonas fluorescens MTCC 2421 at 200 ug/ml after 18 hr by cup-plate method; conditions: MTCC 2421, 18 h, read-out: DIZ
[5] = test system: Bacillus pumilus; assay: Antibacterial activity against Bacillus pumilus MTCC 1456 at 100 ug/ml after 18 hr by cup-plate method; conditions: MTCC 1456, 18 h, read-out: DIZ
[6] = test system: Escherichia coli; assay: Antibacterial activity against Escherichia coli MTCC 1573 after 24 hr by broth dilution method; conditions: MTCC 1573, 24 h
[7] = test system: Micrococcus luteus; assay: Antibacterial activity against Micrococcus luteus MTCC 1538 at 500 ug/ml after 18 hr by cup-plate method; conditions: MTCC 1538, 18 h, read-out: DIZ
[8] = test system: Micrococcus luteus; assay: Antibacterial activity against Micrococcus luteus MTCC 1538 at 1500 ug/ml after 18 hr by cup-plate method; conditions: MTCC 1538, 18 h, read-out: DIZ
[9] = test system: Bacillus pumilus; assay: Antibacterial activity against Bacillus pumilus MTCC 1456 at 1000 ug/ml after 18 hr by cup-plate method; conditions: MTCC 1456, 18 h, read-out: DIZ
[10] = test system: Penicillium chrysogenum; assay: Antifungal activity against Penicillium chrysogenum MTCC 161 at 200 ug/ml after 18 hr by cup-plate method; conditions: MTCC 161, 18 h, read-out: DIZ
[11] = test system: Pseudomonas aeruginosa; assay: Antibacterial activity against Pseudomonas aeruginosa MTCC 424 at 100 ug/ml after 18 hr by cup-plate method; conditions: MTCC 424, 18 h, read-out: DIZ
[12] = test system: Escherichia coli; assay: Antibacterial activity against Escherichia coli MTCC 1573 at 1500 ug/ml after 18 hr by cup-plate method; conditions: MTCC 1573, 18 h, read-out: DIZ
[13] = test system: Penicillium chrysogenum; assay: Antifungal activity against Penicillium chrysogenum MTCC 161 after 24 hr by broth dilution method; conditions: MTCC 161, 24 h
[14] = test system: Micrococcus luteus; assay: Antibacterial activity against Micrococcus luteus MTCC 1538 at 100 ug/ml after 18 hr by cup-plate method; conditions: MTCC 1538, 18 h, read-out: DIZ
[15] = test system: Pseudomonas aeruginosa; assay: Antibacterial activity against Pseudomonas aeruginosa MTCC 424 at 1000 ug/ml after 18 hr by cup-plate method; conditions: MTCC 424, 18 h, read-out: DIZ
[16] = test system: Pseudomonas fluorescens; assay: Antibacterial activity against Pseudomonas fluorescens MTCC 2421 at 500 ug/ml after 18 hr by cup-plate method; conditions: MTCC 2421, 18 h, read-out: DIZ
[17] = test system: Bacillus subtilis; assay: Antibacterial activity against Bacillus subtilis MTCC 441 at 200 ug/ml after 18 hr by cup plate method; conditions: MTCC 441, 18 h, read-out: DIZ
[18] = test system: Staphylococcus aureus; assay: Antibacterial activity against Staphylococcus aureus MTCC 1430 at 1500 ug/ml after 18 hr by cup-plate method; conditions: MTCC 1430, 18 h, read-out: DIZ
[19] = test system: Escherichia coli; assay: Antibacterial activity against Escherichia coli MTCC 1573 at 200 ug/ml after 18 hr by cup-plate method; conditions: MTCC 1573, 18 h, read-out: DIZ
[20] = test system: Micrococcus luteus; assay: Antibacterial activity against Micrococcus luteus MTCC 1538 at 1000 ug/ml after 18 hr by cup-plate method; conditions: MTCC 1538, 18 h, read-out: DIZ
[21] = test system: Bacillus subtilis; assay: Antibacterial activity against Bacillus subtilis MTCC 441 at 100 ug/ml after 18 hr by cup plate method; conditions: MTCC 441, 18 h, read-out: DIZ
[22] = test system: Bacillus subtilis; assay: Antibacterial activity against Bacillus subtilis MTCC 441 at 500 ug/ml after 18 hr by cup plate method; conditions: MTCC 441, 18 h, read-out: DIZ
[23] = test system: Penicillium chrysogenum; assay: Antifungal activity against Penicillium chrysogenum MTCC 161 at 100 ug/ml after 18 hr by cup-plate method; conditions: MTCC 161, 18 h, read-out: DIZ
[24] = test system: Pseudomonas aeruginosa; assay: Antibacterial activity against Pseudomonas aeruginosa MTCC 424 at 200 ug/ml after 18 hr by cup-plate method; conditions: MTCC 424, 18 h, read-out: DIZ
[25] = test system: Pseudomonas fluorescens; assay: Antibacterial activity against Pseudomonas fluorescens MTCC 2421 at 100 ug/ml after 18 hr by cup-plate method; conditions: MTCC 2421, 18 h, read-out: DIZ
[26] = test system: Penicillium chrysogenum; assay: Antifungal activity against Penicillium chrysogenum MTCC 161 at 1500 ug/ml after 18 hr by cup-plate method; conditions: MTCC 161, 18 h, read-out: DIZ
[27] = test system: Bacillus pumilus; assay: Antibacterial activity against Bacillus pumilus MTCC 1456 at 200 ug/ml after 18 hr by cup-plate method; conditions: MTCC 1456, 18 h, read-out: DIZ

SMILES: Cc1cc(/N=C/c2cccc3ccccc23)no1
- zone of inhibition at 1500 µg/mL [1]: 21 mm
- zone of inhibition at 1000 µg/mL [2]: 19 mm
- zone of inhibition at 1500 µg/mL [3]: 19 mm
- zone of inhibition at 200 µg/mL [4]: 13 mm
- zone of inhibition at 100 µg/mL [5]: 13 mm
- MIC [6]: 300 µg/mL (≈ 1270 µM)
- zone of inhibition at 500 µg/mL [7]: 20 mm
- zone of inhibition at 1500 µg/mL [8]: 24 mm
- zone of inhibition at 1000 µg/mL [9]: 17 mm
- zone of inhibition at 200 µg/mL [10]: 16 mm
- zone of inhibition at 100 µg/mL [11]: 14 mm
- zone of inhibition at 1500 µg/mL [12]: 17 mm
- MIC [13]: 200 µg/mL (≈ 846 µM)
- zone of inhibition at 100 µg/mL [14]: 16 mm
- zone of inhibition at 1000 µg/mL [15]: 18 mm
- zone of inhibition at 500 µg/mL [16]: 15 mm
- zone of inhibition at 200 µg/mL [17]: 16 mm
- zone of inhibition at 1500 µg/mL [18]: 20 mm
- zone of inhibition at 200 µg/mL [19]: 13 mm
- zone of inhibition at 1000 µg/mL [20]: 22 mm
- zone of inhibition at 100 µg/mL [21]: 13 mm
- zone of inhibition at 500 µg/mL [22]: 17 mm
- zone of inhibition at 100 µg/mL [23]: 15 mm
- zone of inhibition at 200 µg/mL [24]: 16 mm
- zone of inhibition at 100 µg/mL [25]: 11 mm
- zone of inhibition at 1500 µg/mL [26]: 20 mm
- zone of inhibition at 200 µg/mL [27]: 15 mm

— ChEMBL document CHEMBL3045835, “Comparative study of conventional and microwave-assisted synthesis of some Schiff bases and their potential as antimicrobial agents” (2012)
